Experimental data published in the supplement of paper PMC10307832.

Tests used:
Assay in all cases: relative viability (nuclei count vs DMSO), 5 days (fraction); higher = more cells survive
A-427 = tested on: A-427
Summary of the method: (§1)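 Values are medians from duplicate plates. Each reflects relative viability, defined as the nuclei count of treated wells over that of vehicle wells. Lung cancer cell lines in 1536-well plates were pin-tool dosed one day after seeding with one drug alone or with a fixed anchor-drug dose plus five library-drug doses (not always all listed) in √10 steps, then fixed, stained and imaged at 4× after 5 days.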

COR-L 105 = tested on: COR-L 105
Summary of the method: as §1

ChaGo-K-1 = tested on: ChaGo-K-1
Summary of the method: as §1

EKVX = tested on: EKVX
Summary of the method: as §1

EMC-BAC-2 = tested on: EMC-BAC-2
Summary of the method: as §1

H3255 = tested on: H3255
Summary of the method: as §1

HCC-366 = tested on: HCC-366
Summary of the method: as §1

LK-2 = tested on: LK-2
Summary of the method: as §1

LOU-NH91 = tested on: LOU-NH91
Summary of the method: as §1

NCI-H1563 = tested on: NCI-H1563
Summary of the method: as §1

NCI-H1666 = tested on: NCI-H1666
Summary of the method: as §1

NCI-H1734 = tested on: NCI-H1734
Summary of the method: as §1

NCI-H1755 = tested on: NCI-H1755
Summary of the method: as §1

NCI-H1975 = tested on: NCI-H1975
Summary of the method: as §1

NCI-H2170 = tested on: NCI-H2170
Summary of the method: as §1

NCI-H23 = tested on: NCI-H23
Summary of the method: as §1

NCI-H441 = tested on: NCI-H441
Summary of the method: as §1

NCI-H520 = tested on: NCI-H520
Summary of the method: as §1

NCI-H596 = tested on: NCI-H596
Summary of the method: as §1

PC-3 [JPC-3] = tested on: PC-3 [JPC-3]
Summary of the method: as §1

SK-MES-1 = tested on: SK-MES-1
Summary of the method: as §1

SW 900 = tested on: SW 900
Summary of the method: as §1

Structure (SMILES): O=c1cc(N2CCOCC2)oc2c(-c3cccc4c3sc3ccccc34)cccc12 + Nc1nc2[nH]cc(CCc3ccc(C(=O)N[C@@H](CCC(=O)O)C(=O)O)cc3)c2c(=O)[nH]1 [Pemetrexed] (partner 0.2 µM)
- relative viability (A-427; first compound 0.01 µM): 0.944
- relative viability (A-427; first compound 0.03162 µM): 1.01
- relative viability (A-427; first compound 0.1 µM): 0.954
- relative viability (A-427; first compound 0.3162 µM): 0.993
- relative viability (A-427; first compound 1 µM): 0.945
- relative viability (COR-L 105; first compound 0.01 µM): 1.09
- relative viability (COR-L 105; first compound 0.03162 µM): 0.949
- relative viability (COR-L 105; first compound 0.1 µM): 1.1
- relative viability (COR-L 105; first compound 0.3162 µM): 0.997
- relative viability (COR-L 105; first compound 1 µM): 0.854
- relative viability (ChaGo-K-1; first compound 0.01 µM): 0.267
- relative viability (ChaGo-K-1; first compound 0.03162 µM): 0.249
- relative viability (ChaGo-K-1; first compound 0.1 µM): 0.247
- relative viability (ChaGo-K-1; first compound 0.3162 µM): 0.259
- relative viability (ChaGo-K-1; first compound 1 µM): 0.286
- relative viability (EKVX; first compound 0.01 µM): 0.41
- relative viability (EKVX; first compound 0.03162 µM): 0.384
- relative viability (EKVX; first compound 0.1 µM): 0.419
- relative viability (EKVX; first compound 0.3162 µM): 0.365
- relative viability (EKVX; first compound 1 µM): 0.362
- relative viability (EMC-BAC-2; first compound 0.01 µM): 0.459
- relative viability (EMC-BAC-2; first compound 0.03162 µM): 0.43
- relative viability (EMC-BAC-2; first compound 0.1 µM): 0.457
- relative viability (EMC-BAC-2; first compound 0.3162 µM): 0.477
- relative viability (EMC-BAC-2; first compound 1 µM): 0.456
- relative viability (H3255; first compound 0.01 µM): 0.552
- relative viability (H3255; first compound 0.03162 µM): 0.617
- relative viability (H3255; first compound 0.1 µM): 0.531
- relative viability (H3255; first compound 0.3162 µM): 0.585
- relative viability (H3255; first compound 1 µM): 0.553
- relative viability (HCC-366; first compound 0.01 µM): 0.159
- relative viability (HCC-366; first compound 0.03162 µM): 0.181
- relative viability (HCC-366; first compound 0.1 µM): 0.149
- relative viability (HCC-366; first compound 0.3162 µM): 0.144
- relative viability (HCC-366; first compound 1 µM): 0.186
- relative viability (LK-2; first compound 0.01 µM): 0.278
- relative viability (LK-2; first compound 0.03162 µM): 0.238
- relative viability (LK-2; first compound 0.1 µM): 0.296
- relative viability (LK-2; first compound 0.3162 µM): 0.238
- relative viability (LK-2; first compound 1 µM): 0.275
- relative viability (LOU-NH91; first compound 0.01 µM): 0.39
- relative viability (LOU-NH91; first compound 0.03162 µM): 0.384
- relative viability (LOU-NH91; first compound 0.1 µM): 0.377
- relative viability (LOU-NH91; first compound 0.3162 µM): 0.386
- relative viability (LOU-NH91; first compound 1 µM): 0.425
- relative viability (NCI-H1563; first compound 0.01 µM): 0.863
- relative viability (NCI-H1563; first compound 0.03162 µM): 0.778
- relative viability (NCI-H1563; first compound 0.1 µM): 0.761
- relative viability (NCI-H1563; first compound 0.3162 µM): 0.767
- relative viability (NCI-H1563; first compound 1 µM): 0.641
- relative viability (NCI-H1666; first compound 0.01 µM): 0.944
- relative viability (NCI-H1666; first compound 0.03162 µM): 0.912
- relative viability (NCI-H1666; first compound 0.1 µM): 0.896
- relative viability (NCI-H1666; first compound 0.3162 µM): 0.779
- relative viability (NCI-H1666; first compound 1 µM): 0.82
- relative viability (NCI-H1734; first compound 0.01 µM): 0.453
- relative viability (NCI-H1734; first compound 0.03162 µM): 0.425
- relative viability (NCI-H1734; first compound 0.1 µM): 0.406
- relative viability (NCI-H1734; first compound 0.3162 µM): 0.412
- relative viability (NCI-H1734; first compound 1 µM): 0.396
- relative viability (NCI-H1755; first compound 0.01 µM): 0.476
- relative viability (NCI-H1755; first compound 0.03162 µM): 0.441
- relative viability (NCI-H1755; first compound 0.1 µM): 0.425
- relative viability (NCI-H1755; first compound 0.3162 µM): 0.414
- relative viability (NCI-H1755; first compound 1 µM): 0.445
- relative viability (NCI-H1975; first compound 0.01 µM): 0.309
- relative viability (NCI-H1975; first compound 0.03162 µM): 0.27
- relative viability (NCI-H1975; first compound 0.1 µM): 0.294
- relative viability (NCI-H1975; first compound 0.3162 µM): 0.267
- relative viability (NCI-H1975; first compound 1 µM): 0.309
- relative viability (NCI-H2170; first compound 0.01 µM): 0.253
- relative viability (NCI-H2170; first compound 0.03162 µM): 0.251
- relative viability (NCI-H2170; first compound 0.1 µM): 0.263
- relative viability (NCI-H2170; first compound 0.3162 µM): 0.267
- relative viability (NCI-H2170; first compound 1 µM): 0.255
- relative viability (NCI-H23; first compound 0.01 µM): 0.732
- relative viability (NCI-H23; first compound 0.03162 µM): 0.761
- relative viability (NCI-H23; first compound 0.3162 µM): 0.659
- relative viability (NCI-H23; first compound 1 µM): 0.609
- relative viability (NCI-H441; first compound 0.01 µM): 0.256
- relative viability (NCI-H441; first compound 0.03162 µM): 0.272
- relative viability (NCI-H441; first compound 0.1 µM): 0.299
- relative viability (NCI-H441; first compound 0.3162 µM): 0.276
- relative viability (NCI-H441; first compound 1 µM): 0.235
- relative viability (NCI-H520; first compound 0.01 µM): 0.646
- relative viability (NCI-H520; first compound 0.03162 µM): 0.657
- relative viability (NCI-H520; first compound 0.1 µM): 0.772
- relative viability (NCI-H520; first compound 0.3162 µM): 0.623
- relative viability (NCI-H520; first compound 1 µM): 0.659
- relative viability (NCI-H596; first compound 0.01 µM): 0.452
- relative viability (NCI-H596; first compound 0.03162 µM): 0.521
- relative viability (NCI-H596; first compound 0.1 µM): 0.528
- relative viability (NCI-H596; first compound 0.3162 µM): 0.517
- relative viability (NCI-H596; first compound 1 µM): 0.482
- relative viability (PC-3 [JPC-3]; first compound 0.01 µM): 1.09
- relative viability (PC-3 [JPC-3]; first compound 0.03162 µM): 1.14
- relative viability (PC-3 [JPC-3]; first compound 0.1 µM): 1.05
- relative viability (PC-3 [JPC-3]; first compound 0.3162 µM): 1.1
- relative viability (PC-3 [JPC-3]; first compound 1 µM): 1.1
- relative viability (SK-MES-1; first compound 0.01 µM): 0.868
- relative viability (SK-MES-1; first compound 0.03162 µM): 0.943
- relative viability (SK-MES-1; first compound 0.1 µM): 0.906
- relative viability (SK-MES-1; first compound 0.3162 µM): 0.821
- relative viability (SK-MES-1; first compound 1 µM): 0.91
- relative viability (SW 900; first compound 0.03162 µM): 0.452
- relative viability (SW 900; first compound 0.1 µM): 0.425
- relative viability (SW 900; first compound 0.3162 µM): 0.51
- relative viability (SW 900; first compound 1 µM): 0.507
